System: Nrf2 transcriptional activity (pARE-Luc reporter) in HepG2 cells
Assay: In vitro Nrf2 transcriptional activity measurement by ARE-dependent reporter assay in HepG2 cell
Format: cell-based, human
Conditions: Homo sapiens; HepG2 cells transfected with pARE-Luc, 4 hours at 37° C.; luciferase activity of Example 1-54 or Example 17-23 at 3.75 μM defined as 100%
Description: Test Example 1: In Vitro Nrf2 Transcriptional Activity Measurement by ARE-Dependent Reporter Assay in HepG2 Cell
A human liver cancer-derived cell line HepG2 was transfected with pGL4.37 vector (pARE-Luc, Promega Corp.) and incubated overnight at 37° C. in a humidified atmosphere containing 5% CO2. The cells were dissociated by trypsin treatment, inoculated to a 384-well plate supplemented with a test compound, and incubated at 37° C. for 4 hours. Then, Bright-Glo Reagent (Promega Corp.) was added to the plate, and luciferase activity was measured with Envision plate reader.
Luciferase activity obtained through the action of the compound of Example 1-54 or Example 17-23 at a concentration of 3.75 μM was defined as 100%. The luciferase activity of each well was converted to a response rate (%). The dose-response curve of the compound of each Example was prepared to calculate a 50% effective concentration (EC50).

Row | EC50 | Compound
1 | 2.3 nM | CN1CC2CN(c3cc(Cl)c(C(=O)N4COc5c(cccc5-c5cc(N6CCOCC6)c(C(=O)O)cc5F)C4)c(Cl)c3)CC2C1 (stereo not shown) [Compound 1-48, 4-[3-[2,6-Dichloro-4-(2-methyl-1,3,3a,4,6,6a-hexahydropyrrolo[3,4-c]pyrrol-5-yl)benzoyl]-2,4-dihydro-1,3-benzoxazin-8-yl]-5-fluoro-2-morpholin-4-ylbenzoic acid]
2 | 1.9 nM | O=C(O)c1cc(F)c(-c2cccc3c2OCN(C(=O)c2c(Cl)cc(N4CCC5(CCOC5)C4)cc2Cl)C3)cc1N1CCOCC1 (stereo not shown) [Compound 1-49, 4-[3-[2,6-Dichloro-4-(2-oxa-7-azaspiro[4.4]nonan-7-yl)benzoyl]-2,4-dihydro-1,3-benzoxazin-8-yl]-5-fluoro-2-morpholin-4-ylbenzoic acid]
3 | 4.6 nM | O=C(O)c1cc(F)c(-c2cccc3c2OCN(C(=O)c2c(Cl)cc(N4CCC4=O)cc2Cl)C3)cc1N1CCOCC1 [Compound 1-50, 4-[3-[2,6-Dichloro-4-(2-oxoazetidin-1-yl)benzoyl]-2,4-dihydro-1,3-benzoxazin-8-yl]-5-fluoro-2-morpholin-4-ylbenzoic acid]
4 | 10 nM | O=C(O)c1cc(F)c(-c2cccc3c2OCN(C(=O)c2c(Cl)cc(N4CCOC4=O)cc2Cl)C3)cc1N1CCOCC1 [Compound 1-51, 4-[3-[2,6-Dichloro-4-(2-oxo-1,3-oxazolidin-3-yl)benzoyl]-2,4-dihydro-1,3-benzoxazin-8-yl]-5-fluoro-2-morpholin-4-ylbenzoic acid]
5 | 14 nM | O=C(O)c1cc(F)c(-c2cccc3c2OCN(C(=O)c2c(Cl)cc(N4CCCC4=O)cc2Cl)C3)cc1N1CCOCC1 [Compound 1-52, 4-[3-[2,6-Dichloro-4-(2-oxopyrrolidin-1-yl)benzoyl]-2,4-dihydro-1,3-benzoxazin-8-yl]-5-fluoro-2-morpholin-4-ylbenzoic acid]
6 | 5 nM | CS(=O)(=O)C1CN(c2cc(Cl)c(C(=O)N3COc4c(cccc4-c4cc(N5CCOCC5)c(C(=O)O)cc4F)C3)c(Cl)c2)C1 [Compound 1-53, 4-[3-[2,6-Dichloro-4-(3-methylsulfonylazetidin-1-yl)benzoyl]-2,4-dihydro-1,3-benzoxazin-8-yl]-5-fluoro-2-morpholin-4-ylbenzoic acid]
7 | 1.5 nM | O=C(O)c1cc(F)c(-c2cccc3c2OCN(C(=O)c2c(Cl)cc(N4CCN(C5COC5)CC4)cc2Cl)C3)cc1N1CCOCC1 [Compound 1-55, 4-[3-[2,6-Dichloro-4-[4-(oxetan-3-yl)piperazin-1-yl]benzoyl]-2,4-dihydro-1,3-benzoxazin-8-yl]-5-fluoro-2-morpholin-4-ylbenzoic acid]
8 | 1.3 nM | CN1CCN(c2cc(Cl)c(C(=O)N3COc4c(cccc4-c4cc(N5CCOCC5)c(C(=O)O)cc4F)C3)c(Cl)c2)CC1 [Compound 1-56]
9 | 1.4 nM | CC(C)(O)CN1CCN(c2cc(Cl)c(C(=O)N3COc4c(cccc4-c4cc(N5CCOCC5)c(C(=O)O)cc4F)C3)c(Cl)c2)CC1 [Compound 1-57, 4-[3-[2,6-Dichloro-4-[4-(2-hydroxy-2-methylpropyl)piperazin-1-yl]benzoyl]-2,4-dihydro-1,3-benzoxazin-8-yl]-5-fluoro-2-morpholin-4-ylbenzoic acid]
10 | 4.2 nM | O=C(O)c1cc(F)c(-c2cccc3c2OCN(C(=O)c2c(Cl)cc(N4CCN(CCO)CC4)cc2Cl)C3)cc1N1CCOCC1 [Compound 1-58, 4-[3-[2,6-Dichloro-4-[4-(2-hydroxyethyl)piperazin-1-yl]benzoyl]-2,4-dihydro-1,3-benzoxazin-8-yl]-5-fluoro-2-morpholin-4-ylbenzoic acid]
11 | 1.2 nM | O=C(O)c1cc(F)c(-c2cccc3c2OCN(C(=O)c2c(Cl)cc(N4CCOCC4)cc2Cl)C3)cc1N1CCOCC1 [Compound 1-59, 4-[3-(2,6-Dichloro-4-morpholin-4-ylbenzoyl)-2,4-dihydro-1,3-benzoxazin-8-yl]-5-fluoro-2-morpholin-4-ylbenzoic acid]
12 | 4.2 nM | CN1CCC(N2CCN(c3cc(Cl)c(C(=O)N4COc5c(cccc5-c5cc(N6CCOCC6)c(C(=O)O)cc5F)C4)c(Cl)c3)CC2)CC1 [Compound 1-60, 4-[3-[2,6-Dichloro-4-[4-(1-methylpiperidin-4-yl)piperazin-1-yl]benzoyl]-2,4-dihydro-1,3-benzoxazin-8-yl]-5-fluoro-2-morpholin-4-ylbenzoic acid]
13 | 3.2 nM | CC(C)(O)CN1CCN(c2cc(Cl)c(C(=O)N3COc4c(cccc4-c4ccc(C(=O)O)c(N5CCOCC5)c4)C3)c(Cl)c2)CC1 [Compound 1-62, 4-[3-[2,6-Dichloro-4-[4-(2-hydroxy-2-methylpropyl)piperazin-1-yl)benzoyl]-2,4-dihydro-1,3-benzoxazin-8-yl]-2-morpholin-4-ylbenzoic acid]
14 | 2.1 nM | CN1CCC(N2CCN(c3cc(Cl)c(C(=O)N4COc5c(cccc5-c5ccc(C(=O)O)c(N6CCOCC6)c5)C4)c(Cl)c3)CC2)CC1 [Compound 1-63, 4-[3-[2,6-Dichloro-4-[4-(1-methylpiperidin-4-yl)piperazin-1-yl]benzoyl]-2,4-dihydro-1,3-benzoxazin-8-yl]-2-morpholin-4-ylbenzoic acid]
15 | 3 nM | CN1CCN(c2cc(Cl)c(C(=O)N3COc4c(cccc4-c4ccc(C(=O)O)c(N5CCOCC5)c4)C3)c(Cl)c2)CC1 [Compound 1-64, 4-[3-[2,6-Dichloro-4-(4-methylpiperazin-1-yl)benzoyl]-2,4-dihydro-1,3-benzoxazin-8-yl]-2-morpholin-4-ylbenzoic acid]
16 | 3.7 nM | O=C(O)c1ccc(-c2cccc3c2OCN(C(=O)c2c(Cl)cc(N4CCC(N5CCOCC5)CC4)cc2Cl)C3)cc1N1CCOCC1 [Compound 1-65, 4-[3-[2,6-Dichloro-4-(4-morpholin-4-ylpiperidin-1-yl)benzoyl]-2,4-dihydro-1,3-benzoxazin-8-yl]-2-morpholin-4-ylbenzoic acid]
17 | 2.7 nM | O=C(O)c1ccc(-c2cccc3c2OCN(C(=O)c2c(Cl)cc(N4CCN(C5COC5)CC4)cc2Cl)C3)cc1N1CCOCC1 [Compound 1-66, 4-[3-[2,6-Dichloro-4-[4-(oxetan-3-yl)piperazin-1-yl]benzoyl]-2,4-dihydro-1,3-benzoxazin-8-yl]-2-morpholin-4-ylbenzoic acid]
18 | 4.4 nM | CC(C)N1CCN(c2cc(Cl)c(C(=O)N3COc4c(cccc4-c4ccc(C(=O)O)c(N5CCOCC5)c4)C3)c(Cl)c2)CC1 [Compound 1-67, 4-[3-[2,6-Dichloro-4-(4-propan-2-ylpiperazin-1-yl)benzoyl]-2,4-dihydro-1,3-benzoxazin-8-yl]-2-morpholin-4-ylbenzoic acid]
19 | 8.1 nM | CN1CCN(c2cc(Cl)c(C(=O)N3CSc4c(cccc4-c4cc(N5CCOCC5)c(C(=O)O)cc4F)C3)c(Cl)c2)CC1 [Compound 1-68, 4-[3-[2,6-Dichloro-4-(4-methylpiperazin-1-yl)benzoyl]-2,4-dihydro-1,3-benzothiazin-8-yl]-5-fluoro-2-morpholin-4-ylbenzoic acid]
20 | 5.4 nM | COCCN1CCN(c2cc(Cl)c(C(=O)N3CSc4c(cccc4-c4cc(N5CCOCC5)c(C(=O)O)cc4F)C3)c(Cl)c2)CC1 [Compound 1-69, 4-[3-[2,6-Dichloro-4-[4-(2-methoxyethyl)piperazin-1-yl]benzoyl]-2,4-dihydro-1,3-benzothiazin-8-yl]-5-fluoro-2-morpholin-4-ylbenzoic acid]

Row | Compound | EC50
21 | O=C(O)c1cc(F)c(-c2cccc3c2OCN(C(=O)c2c(Cl)cc(N4CC(F)(F)C(F)(F)C4)cc2Cl)C3)cc1N1C2CCC1COC2 [Compound 1-44, 4-[3-[2,6-Dichloro-4-(3,3,4,4-tetrafluoropyrrolidin-1-yl)benzoyl]-2,4-dihydro-1,3-benzoxazin-8-yl]-5-fluoro-2-(3-oxa-8-azabicyclo[3.2.1]octan-8-yl)benzoic acid] | 6.5 nM
22 | CN1CCN(c2cc(Cl)c(C(=O)N3COc4c(cccc4-c4cc(N5C6CCC5COC6)c(C(=O)O)cc4F)C3)c(Cl)c2)CC(F)(F)C1 [Compound 1-45, 4-[3-[2,6-Dichloro-4-(6,6-difluoro-4-methyl-1,4-diazepan-1-yl)benzoyl]-2,4-dihydro-1,3-benzoxazin-8-yl]-5-fluoro-2-(3-oxa-8-azabicyclo[3.2.1]octan-8-yl)benzoic acid] | 3.7 nM
23 | Cn1cc2c(n1)CN(c1cc(Cl)c(C(=O)N3COc4c(cccc4-c4cc(N5C6CCC5COC6)c(C(=O)O)cc4F)C3)c(Cl)c1)C2 [Compound 1-46, 4-[3-[2,6-Dichloro-4-(2-methyl-4,6-dihydropyrrolo[3,4-c]pyrazol-5-yl)benzoyl]-2,4-dihydro-1,3-benzoxazin-8-yl]-5-fluoro-2-(3-oxa-8-azabicyclo[3.2.1]octan-8-yl)benzoic acid] | 1.9 nM
24 | N#CC1CC2(C1)CN(c1cc(Cl)c(C(=O)N3COc4c(cccc4-c4cc(N5C6CCC5COC6)c(C(=O)O)cc4F)C3)c(Cl)c1)C2 [Compound 1-47, 4-[3-[2,6-Dichloro-4-(6-cyano-2-azaspiro[3.3]heptan-2-yl)benzoyl]-2,4-dihydro-1,3-benzoxazin-8-yl]-5-fluoro-2-(3-oxa-8-azabicyclo[3.2.1]octan-8-yl)benzoic acid] | 12 nM
25 | O=C(O)c1ccc(-c2cccc3c2OCN(C(=O)c2c(Cl)cc(N4CC5(CCCO5)C4)cc2Cl)C3)cc1N1C2CCC1COC2 [Compound 1-61, 4-[3-[2,6-Dichloro-4-(5-oxa-2-azaspiro[3.4]octan-2-yl)benzoyl]-2,4-dihydro-1,3-benzoxazin-8-yl]-2-(3-oxa-8-azabicyclo[3.2.1]octan-8-yl)benzoic acid] | 2.6 nM

— US20250171457A1, “NITROGEN-CONTAINING HETEROCYCLIC COMPOUND HAVING NRF2 ACTIVATION EFFECT” (CHUGAI SEIYAKU KABUSHIKI KAISHA, priority 2022, published 2025)
